± gives the expanded uncertainty stated by the source.
Details: 100 kPa, Liquid, Vibrating tube method

SMILES | mass density (333.15 K) [kg/m3] | mass density (338.15 K) [kg/m3] | mass density (343.15 K) [kg/m3] | mass density (348.15 K) [kg/m3] | mass density (353.15 K) [kg/m3] | mass density (358.15 K) [kg/m3] | mass density (363.15 K) [kg/m3] | mass density (368.15 K) [kg/m3] | mass density (373.15 K) [kg/m3] | mass density (293.15 K) [kg/m3] | mass density (298.15 K) [kg/m3] | mass density (303.15 K) [kg/m3] | mass density (308.15 K) [kg/m3] | mass density (313.15 K) [kg/m3] | mass density (318.15 K) [kg/m3] | mass density (323.15 K) [kg/m3] | mass density (328.15 K) [kg/m3]
CCCCn1cc[n+](C)c1.CS(=O)(=O)[O-] [1-butyl-3-methylimidazolium methanesulfonate] | 1150.6 ± 1.1 | 1147.4 ± 1.1 | 1144.3 ± 1.1 | 1141.2 ± 1 | 1137.9 ± 1 | 1134.9 ± 1 | 1131.9 ± 1 | 1128.8 ± 1 | 1125.8 ± 1 | – | – | – | – | – | – | – | –
CCCCn1cc[n+](C)c1.COP(=O)([O-])OC [1-butyl-3-methyl-1H-imidazolium dimethylphosphate] | 1139.7 ± 1.4 | 1136.5 ± 1.4 | 1133.3 ± 1.4 | 1130.1 ± 1.4 | 1126.9 ± 1.4 | 1123.7 ± 1.4 | 1120.6 ± 1.4 | 1117.4 ± 1.4 | – | 1166.5 ± 1.5 | 1163.2 ± 1.5 | 1159.4 ± 1.5 | 1156.2 ± 1.5 | 1152.7 ± 1.5 | 1149.5 ± 1.5 | 1146.1 ± 1.4 | 1143 ± 1.4

From the NIST ThermoML archive (doi:10.1016/j.jct.2015.07.042)
